Experiments:
Osimertinib-pneumonitis = type: in vivo, human; settings: GR 300 mg/day orally
Description: A patient with lung cancer was treated with Osimertinib (80 mg/day), targeting EGFR pathway. […] At this time point, GR (300 mg/day) was orally used and the extent of Osimertinib-pneumonitis was reduced after one month use of GR (FIG. 17 C). Six months after using GR, pneumonitis subsided while Osimertinib was continuously used to target EGFR pathway (FIG. 17 D).

[1] = test system: TGFβ and Collagen I expression in lung tissue; test: Bleomycin-induced late lung damage, lung tissue q-PCR of pro-fibrosis molecules; type: in vivo, Mice; settings: 5 weeks after inhalation
BLM-pneumonitis = BLM-pneumonitis in C57BL/6 mice; type: in vivo; settings: for mitigation/treatment effect on the severity of BLM-pneumonitis: 3 week period, compared with Dexamethasone; for neutrophils % / lymphocytes % / number of lymphocytes: C57BL/6 mice with BLM-pneumonitis; for lymphocytes % / number of lymphocytes: vs saline-treated; for body weight / dose as low as which could reduce the severity of BLM-pneumonitis: C57BL/6 mice; for body weight: BLM, oral Dexamethasone 1, GR 70, GA 22 mg/kg/day, 2 weeks; for dose as low as which could reduce the severity of BLM-pneumonitis: oral
Description: (§1) The subject invention provides an easy-perform mouse model with inhalation of 110-130 ul of liquid dissolved with various chemicals (e.g., anti-cancer drug or toxic paraquat) deep into whole lung to induce chemicals-pneumonitis. Compared with currently used intratracheal instillation, this new method is more quick (finished within 3 minutes) and non-invasion without surgically exposing the trachea. It delivers agents using a micropipette into the trachea at the back of the throat and allows the mouse to inhale into the lung with operator help for liquid deep-even distribution in the whole lung. This easy operation can quickly set-up for more than one hundred mice with chemicals-pneumonitis, providing enough mice for the screening or validating of various chemical or biological agents for anti-lung inflammation/infection to meet clinical needs.
(§2) A. After anesthesia, a rubber band was attached to the front teeth of the mice, and the mouse body was vertically upright. The tip of the tongue was pulled out with forceps, and 100-130 ul of liquid reagent was dripped into the upper part of the trachea at the back of the throat. The reagent was naturally inhaled into the mouse lung. […] Entire process was about one minute.
(§3) B. The mouse held firmly in the hands of the operator, moved up and down for 3-5 times to let the liquid moving deep into the lung, rotated around for 2-3 circles and repeated for 3 times to let the liquid evenly distributed in the lung. Entire process was about one minute.
C57BL/6 mice (8 weeks, male) were anesthetized and inhalated 110 ul of 5 mg/ml Bleomycin (BLM) to induce BLM-pneumonitis (new method in FIG. 2). Then, the mice were randomly divided into groups (7 mice/group) and orally given different agents: 1) Normal: as time control without any treatment; 2) NS: treated with saline as vehicle control (all agents in saline); 3) Dexamethasone: 1 mg/kg/day of Dexamethasone; 4) GR: at the indicated three different doses of GR; 5) GA: at the indicated three different doses of GA. Due to the severe BLM-pneumonitis, the inflammatory factors (such as MPO, IL 6 etc.) were released to cause acute reactions: dilation of alveolar capillaries, increased permeability, plasma exudation, blood cells entering the lung interstitium/alveoli, resulting in an increased wet weight of whole lung. The lung index was calculated as: whole lung wet weight/body weight. The higher of lung index, the severer of pneumonitis.
C57BL/6 mice (8 weeks, male) were anesthetized and inhalated 110 ul of 5 mg/ml Bleomycin (BLM) to induce BLM-pneumonitis (new method in FIG. 2). Then, the mice were randomly divided into four groups and orally given different agents: 1) NS: vehicle of saline; 2) Dexamethasone: 1 mg/kg/day of Dexamethasone; 3) GR: 70 mg/kg/day of GR; 4) GA: 22 mg/kg/day of GA. Due to the severe lung inflammation, the body weights of mice were lost during 2 weeks.

[2] = test system: various chemicals-induced pneumonitis (Bleomycin, Cisplatin, 5-Fluorouracil, Mitomycin, Methotrexate, paraquat); test: Various chemicals-induced pneumonitis in ICR mice; type: in vivo; settings: for lung index (lung wet weight/body weight) / WBC number in blood: ICR mice, different time points; for lung index (lung wet weight/body weight): various inhaled chemicals, gavage of GR or GA; for WBC number in blood: gavage 122 mg/kg/day of GR or 67 mg/kg/day of GA within one hour; for number of neutrophils: pneumonitis induced by anticancer agents; for NLR (ratio of neutrophils to lymphocytes): various chemicals-induced pneumonitis; for lymphocytes %: various chemicals-induced pneumonitis incl. 5-FU, BLM and Cisplatin
[3] = test system: Bleomycin (BLM) pneumonitis; test: Bleomycin-induced pneumonitis in ICR mice (new inhalation method), left and right lung lobes; type: in vivo; settings: for pathology HE staining of lung: BLM-pneumonitis, GR/GA treatment vs NS; for lung sizes and lung index (lung wet weight/body weight), left and right side: inhaled 110 ul of 5 mg/ml BLM, oral GR 122 mg/kg/day or GA 67 mg/kg/day, three weeks, vs saline (NS)
Description: as §1, §2, §3
Then, the mice were randomly divided into three groups (6 mice/group) and orally given different agents: 1) NS: vehicle of saline; 2) GR: 122 mg/kg/day of GR; 3) GA: 67 mg/kg/day of GA. Three weeks later, mice were sacrificed and the lung lobes of left and right sides were harvested separately.

H1N1 A/FM/1/47 = test: H1N1-pneumonia (H1N1-flu model) in mice; type: in vivo, C57BL/6 mice
H22 liver cancer = test: Tumor growth in ICR mice bearing H22 liver cancer; type: in vivo; settings: GA 40 mg/kg
Description: To determine if GR/GA are used for mitigation/treatment of anti-cancer drugs induced pneumonitis has any blocking effect on anticancer, the GA (40 mg/kg) was used in ICR mice bearing with aggressive H22 liver cancer.

[4] = test system: IL6 and MPO expression in lung tissue; test: Bleomycin+Paraquat-induced pneumonitis, lung tissue q-PCR of acute inflammation molecules; type: in vivo; settings: ICR mice, Bleomycin then paraquat 2 weeks later; sacrificed after 2 weeks
Description: ICR mice were inhalated with 130 ul of 5 mg/ml, and then 2 week later 0.1 mg/ml of paraquat with mitigation using GR or GA. After 2 weeks, mice were sacrificed and the lung tissue were examined with q-PCR for the expression of acute inflammation molecules, such as IL6 and MPO.

[5] = Pharmacokinetics (PK) after oral GR or GA, plasma LC-MS/MS; type: in vivo; settings: ICR mice, 400 mg/kg of GR or 224 mg/kg of GA (equal mole)
Description: After oral taken, it is converted into GA, an aglycone, fat soluble and easily absorbed through double lipid layer. Therefore, we propose that their pharmacokinetics (PK) should be different. […] 100 μl of plasma was added with 30 μl internal standard solution (100 ng/ml) and then 0.5 ml ethyl acetate. The mixture was vortex mixed for 3 min, centrifuged at 14 000×g for 15 min, and then removed 470 μl of supernatant to dry. After re-dissolved in 100 μl of acetonitrile-water (80[…]20, V/V, mobile phase agent), 20 μl was used for LC-MS/MS analysis.

H22 tumor = test: H22 tumor-bearing mice treated with active immunotherapy (H22 vaccine) with GA; type: in vivo
Description: To determine if GA affects the anti-cancer immunotherapy, the H22 tumor-bearing mice were immunized with H22 vaccine, and GA (40 mg/kg) was used for anti-inflammation. The traditional Aspirin (60 mg/kg) was used as drug-control.

For `CC1(C)[C@@H](O[C@H]2O[C@H](C(=O)O)[C@@H](O)[C@H](O)[C@H]2O[C@@H]2O[C@H](C(=O)O)[C@@H](O)[C@H](O)[C@H]2O)CC[C@]2(C)[C@H]3C(=O)C=C4[C@@H]5C[C@@](C)(C(=O)O)CC[C@]5(C)CC[C@@]4(C)[C@]3(C)CC[C@@H]12` [GR, glycyrrhizic acid], the “extent of Osimertinib-pneumonitis” value (Osimertinib-pneumonitis; after one month) was “reduced”, the Osimertinib-pneumonitis (Osimertinib-pneumonitis; six months, Osimertinib continued) was “subsided” and the “Collagen I expression in lung tissue (q-PCR)” value [1] was “reduced”. The “TGFb expression in lung tissue (q-PCR)” value [1] was “reduced”, the “mitigation/treatment effect on the severity of BLM-pneumonitis” value (BLM-pneumonitis) was “better than Dexamethasone” and the neutrophils % (BLM-pneumonitis) was “greatly reduced”. For the same molecule, the lymphocytes % (BLM-pneumonitis) was “increased almost to the normal level”, the number of lymphocytes (BLM-pneumonitis) was “increased” and the body weight (BLM-pneumonitis) was “helped mice to maintain their body weight”. The “dose as low as which could reduce the severity of BLM-pneumonitis” value (BLM-pneumonitis) was at most 40 mg/kg/day, the “lung index (lung wet weight/body weight)” value [2] was “significantly reduced” and the “WBC number in blood” value [2] was “reduced”. The number of neutrophils [2] was “reduced”, the “NLR (ratio of neutrophils to lymphocytes)” value [2] was “reduce” and the lymphocytes % [2] was “increased”. The “pathology HE staining of lung” value [3] was “less inflitration of inflammation cells and better lung structure”, the “lung sizes and lung index (lung wet weight/body weight), left and right side” value [3] was “significantly reduced” and the lymphocytes number (H1N1 A/FM/1/47; H1N1-pneumonia, vs NS) was “increased it in greater degree than Ribavirin”. The neutrophils % (H1N1 A/FM/1/47; H1N1-pneumonia, vs NS) was “reduced them in greater degree than Ribavirin”, the neutrophils number (H1N1 A/FM/1/47; H1N1-pneumonia, vs NS) was “reduced them in greater degree than Ribavirin” and the lung index (H1N1 A/FM/1/47; day 7, 2×LD50 virus, GR 70 mg/kg gavage once a day) was “acted like Ribavirin to reduce the lung index”. For the same molecule, the lymphocytes % (H1N1 A/FM/1/47; day 7 of infection) was “slightly increased”, the IFNg level (H1N1 A/FM/1/47; day 12) was “much less than that in NS and Ribavirin group” and the MCP-1 level (H1N1 A/FM/1/47; day 12) was “reduces MCP-1 to a normal level”. The WBC number (H1N1 A/FM/1/47; day 12) was “reduced WBC number greater than Ribavirin”, the lymphocytes % (H1N1 A/FM/1/47; day 12) was “significantly increased” and the “ratio of neutrophils to lymphocytes (NLR)” value (H1N1 A/FM/1/47; day 12) was “reduced”. For the same molecule, the spleen index (H1N1 A/FM/1/47; day 12) was “reduced spleen index” and the lung index (H1N1 A/FM/1/47; day 12, 1×LD50 virus) was “still had a reduced lung index”.

With glycyrrhetinic acid [GA] the “Collagen I expression in lung tissue (q-PCR)” value [1] was “reduced”, the “TGFb expression in lung tissue (q-PCR)” value [1] was “reduced” and the growth of tumor (H22 liver cancer) was “could reduce the growth of cancer in vivo”. The “IL6 expression in lung tissue (q-PCR)” value [4] was “reduces”, the “MPO expression in lung tissue (q-PCR)” value [4] was “reduces” and the Tmax [5] was 30 min. For the same molecule, the “mitigation/treatment effect on the severity of BLM-pneumonitis” value (BLM-pneumonitis) was “better than Dexamethasone”, the neutrophils % (BLM-pneumonitis) was “greatly reduced” and the lymphocytes % (BLM-pneumonitis) was “increased almost to the normal level”. The number of lymphocytes (BLM-pneumonitis) was “increased”, the body weight (BLM-pneumonitis) was “helped mice to maintain their body weight” and the “dose as low as which could reduce the severity of BLM-pneumonitis” value (BLM-pneumonitis) was at most 22 mg/kg/day. The “lung index (lung wet weight/body weight)” value [2] was “significantly reduced”, the “WBC number in blood” value [2] was “reduced” and the number of neutrophils [2] was “reduced”. The “NLR (ratio of neutrophils to lymphocytes)” value [2] was “reduce”, the lymphocytes % [2] was “increased” and the “pathology HE staining of lung” value [3] was “less inflitration of inflammation cells and better lung structure”. The “lung sizes and lung index (lung wet weight/body weight), left and right side” value [3] was “significantly reduced”, the survival (H22 tumor; 80 day follow-up, tumor-bearing mice treated with H22 vaccine and GA) was “could prolong the survival time of mice” and the “effect of combination use on the anti-tumor effect of H22 vaccine” value (H22 tumor; GA 40 mg/kg with H22 vaccine) was “not affected”. For the same molecule, the WBC number (H1N1 A/FM/1/47; day 12) was “reduced WBC number greater than Ribavirin” and the lymphocytes % (H1N1 A/FM/1/47; day 12) was “significantly increased”.
